Experiments:
Test in all cases: DiscoverX KINOMEscan kinase profiling (468 assays)
Type in all cases: binding
[1] = target: human kinome (Homo sapiens, UniProt P15735); conditions: read-out: Percent Control
Outline: (§1)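 VIP152 was run in DMSO, alongside a DMSO control. Readout was qPCR of DNA-tagged kinase still bound to bead-immobilized biotinylated kinase ligands after compound competition.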

[2] = target: human kinome (Homo sapiens, UniProt P42336, M1043I); conditions: read-out: Percent Control
Sequence of human kinome (Homo sapiens, UniProt P42336, M1043I) (P42336 whole entry M1043I): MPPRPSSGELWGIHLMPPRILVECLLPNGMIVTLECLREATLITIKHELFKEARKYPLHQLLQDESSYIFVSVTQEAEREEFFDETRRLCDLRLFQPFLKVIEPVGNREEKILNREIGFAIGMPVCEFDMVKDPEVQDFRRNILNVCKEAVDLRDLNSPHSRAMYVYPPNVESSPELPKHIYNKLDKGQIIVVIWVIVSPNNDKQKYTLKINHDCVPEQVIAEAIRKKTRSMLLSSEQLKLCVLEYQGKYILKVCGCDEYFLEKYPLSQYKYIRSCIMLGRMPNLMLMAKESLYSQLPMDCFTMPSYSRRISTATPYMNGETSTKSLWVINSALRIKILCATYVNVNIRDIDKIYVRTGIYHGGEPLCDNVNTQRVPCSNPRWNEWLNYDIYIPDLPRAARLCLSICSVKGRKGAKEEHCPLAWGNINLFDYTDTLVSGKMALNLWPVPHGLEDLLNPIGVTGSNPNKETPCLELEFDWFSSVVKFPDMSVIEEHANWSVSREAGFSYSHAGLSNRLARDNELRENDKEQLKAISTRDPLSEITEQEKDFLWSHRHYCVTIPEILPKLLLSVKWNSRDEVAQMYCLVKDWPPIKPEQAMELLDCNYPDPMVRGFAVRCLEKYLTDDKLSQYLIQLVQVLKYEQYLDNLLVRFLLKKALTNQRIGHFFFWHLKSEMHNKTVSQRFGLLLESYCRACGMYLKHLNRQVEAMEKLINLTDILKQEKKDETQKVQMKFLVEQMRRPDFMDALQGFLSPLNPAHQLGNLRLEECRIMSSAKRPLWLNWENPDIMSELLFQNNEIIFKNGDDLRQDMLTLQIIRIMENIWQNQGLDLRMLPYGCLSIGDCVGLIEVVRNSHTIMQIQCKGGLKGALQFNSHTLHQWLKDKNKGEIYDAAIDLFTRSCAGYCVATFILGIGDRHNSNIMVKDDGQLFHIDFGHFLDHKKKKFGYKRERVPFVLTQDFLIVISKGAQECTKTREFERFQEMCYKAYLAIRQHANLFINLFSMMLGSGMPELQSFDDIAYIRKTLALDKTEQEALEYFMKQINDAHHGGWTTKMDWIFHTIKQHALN
Outline: as §1

[3] = target: human kinome (Homo sapiens, UniProt Q16288); conditions: kinase TRKC (Entrez NTRK3); compound concentration 1000 nM; read-out: Percent Control
Outline: as §1

[4] = target: human kinome (Homo sapiens, UniProt P07949, M918T); conditions: kinase RET(M918T) (Entrez RET); compound concentration 1000 nM; read-out: Percent Control
Outline: as §1

[5] = target: human kinome (Homo sapiens, UniProt O14936); conditions: CASK; 100 nM; read-out: Percent Control
Outline: as §1

[6] = target: human kinome (Homo sapiens, UniProt Q9Y2U5); conditions: MAP3K2; 100 nM; read-out: Percent Control
Sequence of human kinome (Homo sapiens, UniProt Q9Y2U5) (Q9Y2U5 whole entry): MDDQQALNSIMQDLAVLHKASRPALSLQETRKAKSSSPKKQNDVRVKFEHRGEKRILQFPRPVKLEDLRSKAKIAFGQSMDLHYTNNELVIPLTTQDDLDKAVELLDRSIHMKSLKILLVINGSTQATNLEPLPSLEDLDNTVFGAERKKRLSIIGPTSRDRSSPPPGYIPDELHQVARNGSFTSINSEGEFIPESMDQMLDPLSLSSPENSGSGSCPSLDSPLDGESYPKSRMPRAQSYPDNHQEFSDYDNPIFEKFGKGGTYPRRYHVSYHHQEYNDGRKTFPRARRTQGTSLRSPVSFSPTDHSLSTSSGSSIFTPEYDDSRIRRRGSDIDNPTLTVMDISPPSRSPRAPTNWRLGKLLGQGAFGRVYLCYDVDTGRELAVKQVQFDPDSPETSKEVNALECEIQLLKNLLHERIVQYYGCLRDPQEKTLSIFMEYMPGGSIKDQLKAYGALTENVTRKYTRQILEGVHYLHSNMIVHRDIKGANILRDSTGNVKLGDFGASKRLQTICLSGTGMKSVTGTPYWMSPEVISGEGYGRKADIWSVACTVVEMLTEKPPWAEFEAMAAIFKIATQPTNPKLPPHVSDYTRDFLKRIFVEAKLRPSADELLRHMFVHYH
Outline: as §1

[7] = target: human kinome (Homo sapiens, UniProt O75747); conditions: read-out: Percent Control
Sequence of human kinome (Homo sapiens, UniProt O75747) (O75747 whole entry): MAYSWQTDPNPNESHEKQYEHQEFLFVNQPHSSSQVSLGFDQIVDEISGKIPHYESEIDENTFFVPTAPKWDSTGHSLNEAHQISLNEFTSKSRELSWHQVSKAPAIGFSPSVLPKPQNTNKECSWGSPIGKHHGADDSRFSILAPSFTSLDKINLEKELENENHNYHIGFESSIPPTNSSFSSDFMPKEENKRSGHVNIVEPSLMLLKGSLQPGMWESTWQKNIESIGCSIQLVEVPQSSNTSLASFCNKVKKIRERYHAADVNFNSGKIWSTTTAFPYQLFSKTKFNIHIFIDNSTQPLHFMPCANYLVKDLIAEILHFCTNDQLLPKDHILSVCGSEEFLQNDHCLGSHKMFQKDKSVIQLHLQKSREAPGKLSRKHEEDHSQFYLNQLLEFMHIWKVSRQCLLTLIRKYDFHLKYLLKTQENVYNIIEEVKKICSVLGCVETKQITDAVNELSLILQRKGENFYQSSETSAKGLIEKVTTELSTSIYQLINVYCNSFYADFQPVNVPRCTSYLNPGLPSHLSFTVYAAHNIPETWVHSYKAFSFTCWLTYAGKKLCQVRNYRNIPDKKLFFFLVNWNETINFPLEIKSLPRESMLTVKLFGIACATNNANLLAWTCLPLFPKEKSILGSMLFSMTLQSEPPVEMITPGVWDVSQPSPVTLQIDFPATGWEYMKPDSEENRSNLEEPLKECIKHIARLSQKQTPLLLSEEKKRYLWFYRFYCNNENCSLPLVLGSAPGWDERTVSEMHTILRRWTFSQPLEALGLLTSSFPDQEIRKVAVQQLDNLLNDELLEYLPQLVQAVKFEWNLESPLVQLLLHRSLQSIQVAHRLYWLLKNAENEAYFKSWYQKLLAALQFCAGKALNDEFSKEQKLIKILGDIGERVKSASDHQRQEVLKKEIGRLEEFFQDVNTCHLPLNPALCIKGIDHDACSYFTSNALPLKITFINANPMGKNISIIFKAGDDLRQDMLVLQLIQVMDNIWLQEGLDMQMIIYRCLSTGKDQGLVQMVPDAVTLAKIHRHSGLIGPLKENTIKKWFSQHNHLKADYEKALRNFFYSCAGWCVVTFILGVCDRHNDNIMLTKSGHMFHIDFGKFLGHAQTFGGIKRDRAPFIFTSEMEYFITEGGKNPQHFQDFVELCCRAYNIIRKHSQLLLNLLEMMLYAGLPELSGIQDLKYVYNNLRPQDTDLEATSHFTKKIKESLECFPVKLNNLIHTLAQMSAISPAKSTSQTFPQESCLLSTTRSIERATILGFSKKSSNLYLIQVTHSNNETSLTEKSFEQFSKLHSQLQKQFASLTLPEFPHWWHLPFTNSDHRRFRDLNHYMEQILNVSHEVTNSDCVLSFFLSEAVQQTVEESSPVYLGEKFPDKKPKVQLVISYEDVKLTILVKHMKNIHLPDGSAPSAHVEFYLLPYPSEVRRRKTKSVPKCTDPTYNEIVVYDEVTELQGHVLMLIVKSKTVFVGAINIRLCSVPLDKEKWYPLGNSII
Outline: as §1

[8] = target: human kinome (Homo sapiens, UniProt Q9Y2H9); conditions: MAST1; 100 nM; read-out: Percent Control
Outline: as §1

[9] = target: human kinome (Homo sapiens, UniProt P11309); conditions: read-out: Percent Control
Sequence of human kinome (Homo sapiens, UniProt P11309) (P11309 whole entry): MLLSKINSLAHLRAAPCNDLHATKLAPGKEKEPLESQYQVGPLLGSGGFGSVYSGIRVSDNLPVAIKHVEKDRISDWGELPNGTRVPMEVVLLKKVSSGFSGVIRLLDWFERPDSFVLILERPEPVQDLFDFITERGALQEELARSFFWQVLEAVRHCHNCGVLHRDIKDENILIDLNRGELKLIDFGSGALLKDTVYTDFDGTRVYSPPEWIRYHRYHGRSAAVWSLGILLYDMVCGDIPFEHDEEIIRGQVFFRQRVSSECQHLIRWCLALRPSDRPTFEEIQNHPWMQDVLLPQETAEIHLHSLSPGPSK
Outline: as §1

[10] = target: human kinome (Homo sapiens, UniProt P07949, V804L); conditions: kinase RET(V804L) (Entrez RET); compound concentration 1000 nM; read-out: Percent Control
Outline: as §1

[11] = target: human kinome (Homo sapiens, UniProt O43683); conditions: BUB1; 100 nM; read-out: Percent Control
Outline: as §1

[12] = target: human kinome (Homo sapiens, UniProt Q9H422); conditions: HIPK3; 100 nM; read-out: Percent Control
Outline: as §1

[13] = target: human kinome (Homo sapiens, UniProt Q6P3R8); conditions: read-out: Percent Control
Sequence of human kinome (Homo sapiens, UniProt Q6P3R8) (Q6P3R8 whole entry): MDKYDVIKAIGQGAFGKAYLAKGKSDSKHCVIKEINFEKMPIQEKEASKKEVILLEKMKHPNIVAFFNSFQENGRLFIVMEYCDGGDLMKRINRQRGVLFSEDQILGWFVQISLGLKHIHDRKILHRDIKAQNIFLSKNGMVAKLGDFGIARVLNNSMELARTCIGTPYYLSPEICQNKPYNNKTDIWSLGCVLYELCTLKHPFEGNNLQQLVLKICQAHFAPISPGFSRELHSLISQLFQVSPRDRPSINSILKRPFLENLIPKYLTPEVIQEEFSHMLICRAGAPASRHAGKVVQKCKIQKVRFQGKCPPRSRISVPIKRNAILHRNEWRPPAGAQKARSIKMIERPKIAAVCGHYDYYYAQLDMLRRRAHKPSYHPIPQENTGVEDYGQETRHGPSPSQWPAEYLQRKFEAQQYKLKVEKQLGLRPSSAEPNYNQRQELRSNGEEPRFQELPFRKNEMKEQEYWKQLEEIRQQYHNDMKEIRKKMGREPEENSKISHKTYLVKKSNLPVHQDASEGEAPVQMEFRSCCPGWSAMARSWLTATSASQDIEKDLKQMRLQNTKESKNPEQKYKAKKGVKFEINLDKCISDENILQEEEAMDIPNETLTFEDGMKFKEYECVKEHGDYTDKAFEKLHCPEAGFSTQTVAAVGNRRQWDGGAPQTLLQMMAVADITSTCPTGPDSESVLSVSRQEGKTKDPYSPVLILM
Outline: as §1

[14] = target: human kinome (Homo sapiens, UniProt P29376); conditions: LTK; 100 nM; read-out: Percent Control
Outline: as §1

[15] = target: human kinome (Homo sapiens, UniProt Q9NRM7); conditions: LATS2; 100 nM; read-out: Percent Control
Outline: as §1

[16] = target: human kinome (Homo sapiens, UniProt Q15569); conditions: kinase TESK1 (Entrez TESK1); compound concentration 1000 nM; read-out: Percent Control
Outline: as §1

[17] = target: human kinome (Homo sapiens, UniProt Q96D53); conditions: ADCK4; 100 nM; read-out: Percent Control
Outline: as §1

[18] = target: human kinome (Homo sapiens, UniProt O43318); conditions: kinase TAK1 (Entrez MAP3K7); compound concentration 1000 nM; read-out: Percent Control
Outline: as §1

[19] = target: human kinome (Homo sapiens, UniProt P54756); conditions: EPHA5; 100 nM; read-out: Percent Control
Outline: as §1

[20] = target: human kinome (Homo sapiens, UniProt Q9UIK4); conditions: DAPK2; 100 nM; read-out: Percent Control
Outline: as §1

[21] = target: human kinome (Homo sapiens, UniProt Q9UPE1); conditions: kinase SRPK3 (Entrez SRPK3); compound concentration 1000 nM; read-out: Percent Control
Outline: as §1

[22] = target: human kinome (Homo sapiens, UniProt Q9HC98); conditions: read-out: Percent Control
Sequence of human kinome (Homo sapiens, UniProt Q9HC98) (Q9HC98 whole entry): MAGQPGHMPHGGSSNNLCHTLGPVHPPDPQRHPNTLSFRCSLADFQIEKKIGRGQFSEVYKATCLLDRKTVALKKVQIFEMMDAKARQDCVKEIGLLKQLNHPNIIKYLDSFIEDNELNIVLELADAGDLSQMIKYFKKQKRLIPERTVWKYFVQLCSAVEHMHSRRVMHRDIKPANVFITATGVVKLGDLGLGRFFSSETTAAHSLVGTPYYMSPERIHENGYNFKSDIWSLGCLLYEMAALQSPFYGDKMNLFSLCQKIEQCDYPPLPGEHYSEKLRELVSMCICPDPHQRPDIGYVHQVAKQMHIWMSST
Outline: as §1

[23] = target: human kinome (Homo sapiens, UniProt P14616); conditions: INSRR; 100 nM; read-out: Percent Control
Outline: as §1

[24] = target: human kinome (Homo sapiens, UniProt O43283); conditions: LZK (Entrez MAP3K13); 100 nM; read-out: Percent Control
Outline: as §1

[25] = target: human kinome (Homo sapiens, UniProt Q96SB4); conditions: kinase SRPK1 (Entrez SRPK1); compound concentration 1000 nM; read-out: Percent Control
Outline: as §1

[26] = target: human kinome (Homo sapiens, UniProt P36888, D835H); conditions: FLT3(D835H); 100 nM; read-out: Percent Control
Outline: as §1

[27] = target: human kinome (Homo sapiens, UniProt P36888, K663Q); conditions: FLT3(K663Q); 100 nM; read-out: Percent Control
Outline: as §1

[28] = target: human kinome (Homo sapiens, UniProt P57058); conditions: HUNK; 100 nM; read-out: Percent Control
Outline: as §1

[29] = target: human kinome (Homo sapiens, UniProt P36888, D835Y); conditions: FLT3(D835Y); 100 nM; read-out: Percent Control
Outline: as §1

[30] = target: human kinome (Homo sapiens, UniProt P42336, H1047L); conditions: read-out: Percent Control
Sequence of human kinome (Homo sapiens, UniProt P42336, H1047L) (P42336 whole entry H1047L): as the sequence (P42336 whole entry M1043I) above, with I1043M, H1047L counted along it
Outline: as §1

Sequence of human kinome (Homo sapiens, UniProt P15735) (P15735 whole entry): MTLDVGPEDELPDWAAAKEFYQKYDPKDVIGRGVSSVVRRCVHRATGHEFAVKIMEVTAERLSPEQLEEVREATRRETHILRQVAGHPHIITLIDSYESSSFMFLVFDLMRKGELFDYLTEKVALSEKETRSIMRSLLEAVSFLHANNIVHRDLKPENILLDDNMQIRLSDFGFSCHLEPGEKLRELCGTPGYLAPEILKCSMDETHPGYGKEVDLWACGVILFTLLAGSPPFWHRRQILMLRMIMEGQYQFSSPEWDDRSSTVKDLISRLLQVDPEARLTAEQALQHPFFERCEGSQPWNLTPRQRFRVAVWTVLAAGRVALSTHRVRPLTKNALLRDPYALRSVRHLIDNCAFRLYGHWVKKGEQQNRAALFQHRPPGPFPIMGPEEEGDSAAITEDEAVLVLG

For `COc1cc(F)ccc1-c1cc(Nc2cc(CS(C)(=N)=O)ccn2)ncc1F` (stereo not shown) [VIP152], which remaining binding at 0.1 µM ([1]; PHKG2, 100 nM) is on record?
Its remaining binding at 0.1 µM is 100%.

And the remaining binding at 1 µM ([1]; kinase PHKG2 (Entrez PHKG2), compound concentration 1000 nM)?
The remaining binding at 1 µM was 88%.

What about the remaining binding at 0.1 µM ([2]; PIK3CA(M1043I), 100 nM) of the same molecule?
Its remaining binding at 0.1 µM is 100%.

What about the remaining binding at 1 µM ([2]; kinase PIK3CA(M1043I) (Entrez PIK3CA), compound concentration 1000 nM) of the same molecule?
The remaining binding at 1 µM was 84%.

What about the remaining binding at 1 µM [3] of the same molecule?
The remaining binding at 1 µM was 26%.

And the remaining binding at 1 µM [4]?
The remaining binding at 1 µM was 73%.

What about the remaining binding at 0.1 µM [5] of the same molecule?
The remaining binding at 0.1 µM was 78%.

And the remaining binding at 0.1 µM [6]?
Its remaining binding at 0.1 µM is 100%.

What about the remaining binding at 0.1 µM ([7]; PIK3C2G, 100 nM) of the same molecule?
Its remaining binding at 0.1 µM is 100%.

What about the remaining binding at 1 µM ([7]; kinase PIK3C2G (Entrez PIK3C2G), compound concentration 1000 nM) of the same molecule?
Its remaining binding at 1 µM is 94%.

And the remaining binding at 0.1 µM [8]?
Its remaining binding at 0.1 µM is 94%.

What about the remaining binding at 0.1 µM ([9]; PIM1, 100 nM) of the same molecule?
Its remaining binding at 0.1 µM is 100%.

What about the remaining binding at 1 µM ([9]; kinase PIM1 (Entrez PIM1), compound concentration 1000 nM) of the same molecule?
Its remaining binding at 1 µM is 100%.

And the remaining binding at 1 µM [10]?
Its remaining binding at 1 µM is 86%.

What about the remaining binding at 0.1 µM [11] of the same molecule?
The remaining binding at 0.1 µM was 100%.

What about the remaining binding at 0.1 µM [12] of the same molecule?
Its remaining binding at 0.1 µM is 100%.

What about the remaining binding at 0.1 µM ([13]; NEK5, 100 nM) of the same molecule?
The remaining binding at 0.1 µM was 100%.

What about the remaining binding at 1 µM ([13]; kinase NEK5 (Entrez NEK5), compound concentration 1000 nM) of the same molecule?
Its remaining binding at 1 µM is 92%.

What about the remaining binding at 0.1 µM [14] of the same molecule?
Its remaining binding at 0.1 µM is 96%.

And the remaining binding at 0.1 µM [15]?
Its remaining binding at 0.1 µM is 99%.

And the remaining binding at 1 µM [16]?
The remaining binding at 1 µM was 92%.

What about the remaining binding at 0.1 µM [17] of the same molecule?
Its remaining binding at 0.1 µM is 100%.

What about the remaining binding at 1 µM [18] of the same molecule?
The remaining binding at 1 µM was 65%.

And the remaining binding at 0.1 µM [19]?
The remaining binding at 0.1 µM was 100%.

And the remaining binding at 0.1 µM [20]?
Its remaining binding at 0.1 µM is 100%.

And the remaining binding at 1 µM [21]?
The remaining binding at 1 µM was 68%.

What about the remaining binding at 0.1 µM ([22]; NEK6, 100 nM) of the same molecule?
The remaining binding at 0.1 µM was 100%.

What about the remaining binding at 1 µM ([22]; kinase NEK6 (Entrez NEK6), compound concentration 1000 nM) of the same molecule?
The remaining binding at 1 µM was 93%.

What about the remaining binding at 0.1 µM [23] of the same molecule?
The remaining binding at 0.1 µM was 100%.

And the remaining binding at 0.1 µM [24]?
The remaining binding at 0.1 µM was 100%.

And the remaining binding at 1 µM [25]?
Its remaining binding at 1 µM is 91%.

What about the remaining binding at 0.1 µM [26] of the same molecule?
The remaining binding at 0.1 µM was 100%.

What about the remaining binding at 0.1 µM [27] of the same molecule?
The remaining binding at 0.1 µM was 100%.

And the remaining binding at 0.1 µM [28]?
Its remaining binding at 0.1 µM is 88%.

And the remaining binding at 0.1 µM [29]?
The remaining binding at 0.1 µM was 100%.

What about the remaining binding at 0.1 µM ([30]; PIK3CA(H1047L), 100 nM) of the same molecule?
The remaining binding at 0.1 µM was 100%.

What about the remaining binding at 1 µM ([30]; kinase PIK3CA(H1047L) (Entrez PIK3CA), compound concentration 1000 nM) of the same molecule?
Its remaining binding at 1 µM is 100%.

— paper PMC9898036, “VIP152 is a selective CDK9 inhibitor with pre-clinical in vitro and in vivo efficacy in chronic lymphocytic leukemia” (Leukemia, 2022)
